Reference: ChEMBL document CHEMBL4507291 (2021)

Experiments:
[1] = system: Receptor-type tyrosine-protein kinase FLT3 (Homo sapiens), P36888 [UNDEFINED MUTATION]
[2] = biological target: T1, Serine/threonine-protein kinase Nek1 (Homo sapiens) (UniProt Q96PY6)
T1 sequence (whole entry): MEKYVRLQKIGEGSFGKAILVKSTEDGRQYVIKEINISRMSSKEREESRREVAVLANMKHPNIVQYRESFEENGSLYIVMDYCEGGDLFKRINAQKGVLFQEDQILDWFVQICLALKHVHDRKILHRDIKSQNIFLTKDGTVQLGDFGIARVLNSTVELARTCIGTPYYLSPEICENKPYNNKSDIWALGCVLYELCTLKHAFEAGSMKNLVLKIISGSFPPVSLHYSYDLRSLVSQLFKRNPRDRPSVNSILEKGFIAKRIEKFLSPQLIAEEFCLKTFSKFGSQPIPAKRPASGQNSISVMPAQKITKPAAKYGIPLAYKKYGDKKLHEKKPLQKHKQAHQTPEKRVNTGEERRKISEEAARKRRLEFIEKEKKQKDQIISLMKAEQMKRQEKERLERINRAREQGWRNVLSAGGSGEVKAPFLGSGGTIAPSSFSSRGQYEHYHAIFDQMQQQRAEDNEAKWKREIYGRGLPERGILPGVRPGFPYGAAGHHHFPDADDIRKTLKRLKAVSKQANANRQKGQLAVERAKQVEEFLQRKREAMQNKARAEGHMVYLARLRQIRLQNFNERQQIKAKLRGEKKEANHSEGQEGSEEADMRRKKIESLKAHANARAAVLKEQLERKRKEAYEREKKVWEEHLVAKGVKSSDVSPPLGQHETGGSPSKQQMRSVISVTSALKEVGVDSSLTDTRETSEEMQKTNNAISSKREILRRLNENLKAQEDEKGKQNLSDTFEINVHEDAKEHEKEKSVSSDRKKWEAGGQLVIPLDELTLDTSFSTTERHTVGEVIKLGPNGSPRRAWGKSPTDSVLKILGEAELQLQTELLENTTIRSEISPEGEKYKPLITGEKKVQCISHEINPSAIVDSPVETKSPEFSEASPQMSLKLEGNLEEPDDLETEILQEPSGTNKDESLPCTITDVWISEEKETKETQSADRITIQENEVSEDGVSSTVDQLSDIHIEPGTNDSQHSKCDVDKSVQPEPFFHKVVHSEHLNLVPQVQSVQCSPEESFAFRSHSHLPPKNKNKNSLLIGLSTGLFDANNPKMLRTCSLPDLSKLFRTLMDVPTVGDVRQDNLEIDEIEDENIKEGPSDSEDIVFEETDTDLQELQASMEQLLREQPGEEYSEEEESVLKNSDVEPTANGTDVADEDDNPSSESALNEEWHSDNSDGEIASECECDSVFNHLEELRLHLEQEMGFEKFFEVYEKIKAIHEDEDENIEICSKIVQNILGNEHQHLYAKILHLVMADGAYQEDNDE

[3] = biological target: Serine/threonine-protein kinase Nek7 (Homo sapiens) (UniProt Q8TDX7)
Chain of Serine/threonine-protein kinase Nek7 (Homo sapiens) (Q8TDX7 whole entry, looked up): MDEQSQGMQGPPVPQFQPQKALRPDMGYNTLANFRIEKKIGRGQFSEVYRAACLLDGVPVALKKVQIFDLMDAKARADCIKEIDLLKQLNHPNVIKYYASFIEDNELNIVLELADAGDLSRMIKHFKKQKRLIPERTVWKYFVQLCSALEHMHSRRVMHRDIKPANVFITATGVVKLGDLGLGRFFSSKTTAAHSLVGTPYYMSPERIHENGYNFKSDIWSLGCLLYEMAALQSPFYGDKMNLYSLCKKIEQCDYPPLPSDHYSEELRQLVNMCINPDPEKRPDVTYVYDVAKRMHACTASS

[4] = biological target: T2, Serine/threonine-protein kinase Sgk1 (Homo sapiens) (UniProt O00141)
T2 sequence (whole entry): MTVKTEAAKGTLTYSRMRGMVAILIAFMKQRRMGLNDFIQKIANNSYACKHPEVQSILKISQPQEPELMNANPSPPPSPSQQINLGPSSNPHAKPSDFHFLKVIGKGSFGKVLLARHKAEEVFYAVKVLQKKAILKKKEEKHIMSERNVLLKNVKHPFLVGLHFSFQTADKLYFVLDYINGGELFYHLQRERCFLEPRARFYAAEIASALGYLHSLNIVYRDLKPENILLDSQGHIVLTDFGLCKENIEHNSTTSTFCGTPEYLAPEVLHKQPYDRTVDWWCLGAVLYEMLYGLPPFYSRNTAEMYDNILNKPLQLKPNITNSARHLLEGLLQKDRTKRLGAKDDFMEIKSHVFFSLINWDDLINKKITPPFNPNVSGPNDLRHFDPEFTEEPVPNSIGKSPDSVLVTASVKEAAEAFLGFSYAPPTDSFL

[5] = biological target: T3, Ephrin type-B receptor 3 (Homo sapiens) (UniProt P54753)
T3 sequence (whole entry): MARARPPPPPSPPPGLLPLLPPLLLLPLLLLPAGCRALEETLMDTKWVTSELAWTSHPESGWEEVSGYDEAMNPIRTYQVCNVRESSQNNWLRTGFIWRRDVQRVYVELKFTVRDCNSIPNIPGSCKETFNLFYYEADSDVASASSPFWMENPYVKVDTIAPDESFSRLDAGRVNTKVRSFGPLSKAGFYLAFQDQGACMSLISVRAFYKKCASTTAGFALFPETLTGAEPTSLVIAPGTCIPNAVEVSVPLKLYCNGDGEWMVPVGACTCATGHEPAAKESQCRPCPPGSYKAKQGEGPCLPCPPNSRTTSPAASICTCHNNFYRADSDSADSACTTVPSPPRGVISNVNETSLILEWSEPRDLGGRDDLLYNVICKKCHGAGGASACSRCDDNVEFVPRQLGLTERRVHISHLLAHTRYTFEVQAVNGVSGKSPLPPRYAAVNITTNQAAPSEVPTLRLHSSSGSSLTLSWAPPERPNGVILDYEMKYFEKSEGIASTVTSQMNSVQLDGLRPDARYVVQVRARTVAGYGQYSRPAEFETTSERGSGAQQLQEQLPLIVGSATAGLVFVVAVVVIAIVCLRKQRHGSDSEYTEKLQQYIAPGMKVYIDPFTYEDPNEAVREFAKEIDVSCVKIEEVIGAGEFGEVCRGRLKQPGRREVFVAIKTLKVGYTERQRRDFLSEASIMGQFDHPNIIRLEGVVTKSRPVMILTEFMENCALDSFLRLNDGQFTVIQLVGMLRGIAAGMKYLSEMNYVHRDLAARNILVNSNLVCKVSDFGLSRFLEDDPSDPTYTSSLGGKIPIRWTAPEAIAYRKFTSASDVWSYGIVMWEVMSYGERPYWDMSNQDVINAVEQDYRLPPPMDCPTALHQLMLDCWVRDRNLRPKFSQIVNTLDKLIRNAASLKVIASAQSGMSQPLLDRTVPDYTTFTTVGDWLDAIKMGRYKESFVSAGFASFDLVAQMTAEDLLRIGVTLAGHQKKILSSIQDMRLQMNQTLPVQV

[6] = Compound concentration 100.0 nM
[7] = Compound concentration 1000.0 nM

Chain of Receptor-type tyrosine-protein kinase FLT3 (Homo sapiens), P36888 [UNDEFINED MUTATION] (P36888 whole entry, looked up, change not shown): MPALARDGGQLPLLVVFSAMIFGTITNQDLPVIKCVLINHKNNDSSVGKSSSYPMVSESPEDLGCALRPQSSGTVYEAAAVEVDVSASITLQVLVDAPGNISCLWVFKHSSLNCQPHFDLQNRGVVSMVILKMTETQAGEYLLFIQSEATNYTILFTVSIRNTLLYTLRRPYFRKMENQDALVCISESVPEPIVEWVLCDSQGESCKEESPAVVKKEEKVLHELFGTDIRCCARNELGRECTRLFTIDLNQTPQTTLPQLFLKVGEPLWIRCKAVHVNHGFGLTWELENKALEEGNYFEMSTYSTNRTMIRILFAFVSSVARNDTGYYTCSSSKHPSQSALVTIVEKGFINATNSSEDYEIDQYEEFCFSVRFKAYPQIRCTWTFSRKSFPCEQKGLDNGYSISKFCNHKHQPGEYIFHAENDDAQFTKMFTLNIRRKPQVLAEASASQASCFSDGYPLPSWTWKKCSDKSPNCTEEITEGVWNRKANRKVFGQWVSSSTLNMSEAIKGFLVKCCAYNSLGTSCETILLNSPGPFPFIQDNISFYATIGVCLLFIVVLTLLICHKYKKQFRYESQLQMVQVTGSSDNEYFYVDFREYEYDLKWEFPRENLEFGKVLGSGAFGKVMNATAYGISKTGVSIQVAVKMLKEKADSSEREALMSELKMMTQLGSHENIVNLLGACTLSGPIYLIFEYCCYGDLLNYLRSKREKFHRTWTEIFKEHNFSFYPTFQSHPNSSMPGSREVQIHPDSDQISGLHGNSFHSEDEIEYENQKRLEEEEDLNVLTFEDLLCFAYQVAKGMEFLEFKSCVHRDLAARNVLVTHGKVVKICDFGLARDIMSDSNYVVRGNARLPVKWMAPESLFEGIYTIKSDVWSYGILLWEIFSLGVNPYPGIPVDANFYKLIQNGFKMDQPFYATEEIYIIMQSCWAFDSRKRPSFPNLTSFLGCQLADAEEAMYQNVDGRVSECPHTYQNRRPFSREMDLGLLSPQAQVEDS

Structure (SMILES) | residual activity [1, 6] | residual activity [2, 6] | residual activity [3, 6] | residual activity [4, 6] | residual activity [5, 6] | residual activity [1, 7] | residual activity [2, 7] | residual activity [3, 7] | residual activity [4, 7] | residual activity [5, 7]
C[C@@H]1CN(c2cc(-c3n[nH]c4ccc(OC5(C)CC5)cc34)ncn2)C[C@H](C)O1 [MLi-2] | 75% | 100% | 100% | 89% | 98% | – | – | – | – | –
C[C@@H]1CN(c2cc(-c3nn(C)c4ccc(OC5(C)CC5)cc34)ncn2)C[C@H](C)O1 [MLi-2-NC] | – | – | – | – | – | 88% | 83% | 79% | 47% | 100%
